Source: PMC8119466, “A screen of FDA-approved drugs identifies inhibitors of protein tyrosine phosphatase 4A3 (PTP4A3 or PRL-3)” (Scientific Reports, 2021)
Where a name gives a salt, the structure may show the parent alone. Read-outs that look alike come from different tables or passages of the source.

Assays:
Type in all cases: biochemical
[1] = molecular target: T1, recombinant PRL-3 (Homo sapiens, UniProt O75365); experiment: In vitro phosphatase assay (DiFMUP hydrolysis), PRL-3; note: test concentration or dose not given here
T1 construct: 6xHis (N, cleaved yes); made in house; host or cells: E. coli One Shot BL21 Star

[2] = molecular target: T2, recombinant PRL-1 (Homo sapiens, UniProt Q93096); experiment: In vitro phosphatase assay (DiFMUP hydrolysis), PRL-1; note: test concentration or dose not given here
T2 construct: 6xHis (N, cleaved yes); made in house; host or cells: E. coli One Shot BL21 Star
T2 sequence (Q93096 1-173): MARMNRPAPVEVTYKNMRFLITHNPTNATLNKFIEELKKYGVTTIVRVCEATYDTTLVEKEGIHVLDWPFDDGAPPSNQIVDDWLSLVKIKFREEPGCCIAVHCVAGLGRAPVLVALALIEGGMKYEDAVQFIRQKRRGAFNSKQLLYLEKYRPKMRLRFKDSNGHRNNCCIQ

[3] = molecular target: T3, recombinant PRL-2 (Homo sapiens, UniProt Q12974); experiment: In vitro phosphatase assay (DiFMUP hydrolysis), PRL-2;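 note: PRL-2 activity read as DiFMUP hydrolysis after 20 min at room temperature with drug, enzyme first pre-reduced at 4 °C for 20 min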
T3 construct: 6xHis (N, cleaved yes); made in house; host or cells: E. coli One Shot BL21 Star
T3 sequence (Q12974 1-167): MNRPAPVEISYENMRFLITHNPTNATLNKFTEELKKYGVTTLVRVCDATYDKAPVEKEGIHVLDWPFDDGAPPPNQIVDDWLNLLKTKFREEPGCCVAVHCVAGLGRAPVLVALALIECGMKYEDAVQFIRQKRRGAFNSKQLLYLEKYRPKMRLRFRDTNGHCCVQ

[4] = FDA-approved drug screen, compared to DMSO

T1 sequence (O75365 whole entry): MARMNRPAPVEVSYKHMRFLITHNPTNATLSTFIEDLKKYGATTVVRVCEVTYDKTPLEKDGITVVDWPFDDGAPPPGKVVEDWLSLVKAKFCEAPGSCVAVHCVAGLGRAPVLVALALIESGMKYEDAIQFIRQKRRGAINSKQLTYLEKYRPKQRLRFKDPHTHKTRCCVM

Row | Compound | % Phosphatase Activity (compared to DMSO) PRL-3 [1, 4] [%] | % Phosphatase Activity (compared to DMSO) PRL-1 [2, 4] [%] | % Phosphatase Activity (compared to DMSO) PRL-2 [3, 4] [%] | % Phosphatase Activity (compared to DMSO) PRL-3 [1] [%] | % Phosphatase Activity (compared to DMSO) PRL-1 [2] [%] | % Phosphatase Activity (compared to DMSO) PRL-2 [3] [%]
1 | O=C(CCCN1CCN(c2ccccn2)CC1)c1ccc(F)cc1 [Azaperone] | 88 | 96 | 96 | – | – | –
2 | CN1CCC(=C2c3ccccc3CCc3cccnc32)CC1 [Azatadine dimaleate] | 84 | 103 | 108 | – | – | –
3 | Cn1cnc([N+](=O)[O-])c1Sc1ncnc2nc[nH]c12 [Azathioprine] | – | – | – | 74 | 96 | 107
4 | O=C(O)CCCCCCCC(=O)O [Azelaic acid] | 95 | 94 | 98 | – | – | –
5 | CN1CCCC(n2nc(Cc3ccc(Cl)cc3)c3ccccc3c2=O)CC1 (stereo not drawn) [Azelastine HCl] | 87 | 121 | 113 | – | – | –
6 | CC1=C(C(=O)OC(C)C)C(c2cccc([N+](=O)[O-])c2)C(C(=O)OC2CN(C(c3ccccc3)c3ccccc3)C2)=C(N)N1 (stereo not drawn) [Azelnidipine] | 95 | 93 | 99 | – | – | –
7 | CCOc1nc2cccc(C(=O)OCc3oc(=O)oc3C)c2n1Cc1ccc(-c2ccccc2-c2noc(=O)[nH]2)cc1 [Azilsartan Medoxomil] | 90 | 91 | 96 | – | – | –
8 | CCOc1nc2cccc(C(=O)O)c2n1Cc1ccc(-c2ccccc2-c2nc(=O)o[nH]2)cc1 [Azilsartan] | 101 | 111 | 130 | – | – | –
9 | CC[C@H]1OC(=O)[C@H](C)[C@@H](O[C@H]2C[C@@](C)(OC)[C@@H](O)[C@H](C)O2)[C@H](C)[C@@H](O[C@@H]2O[C@H](C)C[C@H](N(C)C)[C@H]2O)[C@](C)(O)C[C@@H](C)CN(C)[C@H](C)[C@@H](O)[C@]1(C)O [Azithromycin Dihydrate] | 73 | 98 | 99 | – | – | –
10 | CC[C@H]1OC(=O)[C@H](C)[C@@H](O[C@H]2C[C@@](C)(OC)[C@@H](O)[C@H](C)O2)[C@H](C)[C@@H](O[C@@H]2O[C@H](C)C[C@H](N(C)C)[C@H]2O)[C@](C)(O)C[C@@H](C)CN(C)[C@H](C)[C@@H](O)[C@]1(C)O [Azithromycin] | 101 | 94 | 94 | – | – | –
11 | CC1(C)S[C@@H]2[C@H](NC(=O)[C@H](NC(=O)N3CCNC3=O)c3ccccc3)C(=O)N2[C@H]1C(=O)O [Azlocillin sodium salt] | 85 | 100 | 112 | – | – | –
12 | C[C@H]1[C@H](NC(=O)/C(=N\OC(C)(C)C(=O)O)c2csc(N)n2)C(=O)N1S(=O)(=O)O [Aztreonam] | 76 | 97 | 88 | – | – | –
13 | CCc1cc(/C(C)=N/OCc2ccc(C3CCCCC3)c(C(F)(F)F)c2)ccc1CN1CC(C(=O)O)C1 [BAF312 (Siponimod)] | 101 | 99 | 87 | – | – | –
14 | Cc1ccc(-n2nc(C(C)(C)C)cc2NC(=O)Nc2ccc(OCCN3CCOCC3)c3ccccc23)cc1 [BIRB 796 (Doramapimod)] | 98 | 108 | 106 | – | – | –
15 | Cc1nc(NC(=O)N2CCC[C@H]2C(N)=O)sc1-c1ccnc(C(C)(C)C(F)(F)F)c1 [BYL719] | 90 | 89 | 96 | – | – | –
16 | Cc1ccc(NC(=O)c2ccc(CN3CC[C@H](N(C)C)C3)c(C(F)(F)F)c2)cc1Nc1nccc(-c2cncnc2)n1 [Bafetinib (INNO-406)] | 76 | 97 | 105 | – | – | –
17 | CNC1CCCN(c2c(F)cc3c(=O)c(C(=O)O)cn(C4CC4)c3c2OC)C1 (stereo not drawn) [Balofloxacin] | 123 | 282 | 411 | – | – | –
18 | CCN(CCO)CCCOc1ccc2c(Nc3cc(CC(=O)Nc4cccc(F)c4)[nH]n3)ncnc2c1 [Barasertib (AZD1152-HQPA)] | 76 | 91 | 95 | – | – | –
19 | CNC(=O)[C@H](Cc1ccccc1)NC(=O)[C@H](CC(C)C)[C@H](CSc1cccs1)C(=O)NO [Batimastat (BB-94)] | 89 | 88 | 79 | – | – | –

Row | Compound | % Phosphatase Activity (compared to DMSO) PRL-3 [1, 4] [%] | % Phosphatase Activity (compared to DMSO) PRL-1 [2, 4] [%] | % Phosphatase Activity (compared to DMSO) PRL-2 [3, 4] [%] | % Phosphatase Activity (compared to DMSO) PRL-3 [1] [%] | % Phosphatase Activity (compared to DMSO) PRL-1 [2] [%] | % Phosphatase Activity (compared to DMSO) PRL-2 [3] [%]
20 | CCC(=O)OCC(=O)[C@@]1(OC(=O)CC)[C@@H](C)C[C@H]2[C@@H]3CCC4=CC(=O)C=C[C@]4(C)[C@@]3(Cl)[C@@H](O)C[C@@]21C [Beclomethasone dipropionate] | 90 | 98 | 91 | – | – | –
21 | O=C(/C=C/c1cccc(S(=O)(=O)Nc2ccccc2)c1)NO [Belinostat (PXD101)] | 80 | 98 | 104 | – | – | –
22 | CCOC(=O)[C@H](CCc1ccccc1)N[C@H]1CCc2ccccc2N(CC(=O)O)C1=O [Benazepril HCl] | 78 | 91 | 80 | – | – | –
23 | Cl.Cn1c(CCCC(=O)O)nc2cc(N(CCCl)CCCl)ccc21 [Bendamustine HCl] | 79 | 122 | 128 | – | – | –
24 | NC(CO)C(=O)NNCc1ccc(O)c(O)c1O (stereo not drawn) [Benserazide HCl] | 68 | 103 | 99 | – | – | –
25 | CCc1oc2ccccc2c1C(=O)c1cc(Br)c(O)c(Br)c1 [Benzbromarone] | 51 | 63 | 56 | – | – | –
26 | CCOC(=O)c1ccc(N)cc1.Cl [Benzocaine hydrochloride] | 84 | 100 | 102 | – | – | –
27 | CCOC(=O)c1ccc(N)cc1 [Benzocaine] | 84 | 87 | 98 | – | – | –
28 | NS(=O)(=O)c1cc2c(cc1Cl)N=C(CSCc1ccccc1)NS2(=O)=O [Benzthiazide] | 99 | 111 | 115 | – | – | –
29 | CN1[C@@H]2CC[C@H]1C[C@@H](OC(c1ccccc1)c1ccccc1)C2 [Benztropine mesylate] | 89 | 94 | 106 | – | – | –
30 | CN(C)CCCOc1nn(Cc2ccccc2)c2ccccc12 [Benzydamine HCl] | 77 | 100 | 116 | – | – | –
31 | OCc1ccccc1 [Benzyl alcohol] | 82 | 94 | 91 | – | – | –
32 | O=C(OCc1ccccc1)c1ccccc1 [Benzyl benzoate] | 77 | 83 | 75 | – | – | –
33 | C[N+](C)(CCOc1ccccc1)Cc1ccccc1.O=C([O-])c1cc2ccccc2cc1O [Bephenium Hydroxynaphthoate] | 92 | 108 | 103 | – | – | –
34 | CNCCc1ccccn1.Cl.Cl [Betahistine 2HCl] | 87 | 93 | 96 | – | – | –
35 | CCC(=O)OCC(=O)[C@@]1(OC(=O)CC)[C@@H](C)C[C@H]2[C@@H]3CCC4=CC(=O)C=C[C@]4(C)[C@@]3(F)[C@@H](O)C[C@@]21C [Betamethasone Dipropionate] | 84 | 92 | 83 | – | – | –
36 | CCCCC(=O)O[C@]1(C(=O)CO)[C@@H](C)C[C@H]2[C@@H]3CCC4=CC(=O)C=C[C@]4(C)[C@@]3(F)[C@@H](O)C[C@@]21C [Betamethasone valerate (Betnovate)] | 79 | 97 | 83 | – | – | –
37 | C[C@H]1C[C@H]2[C@@H]3CCC4=CC(=O)C=C[C@]4(C)[C@@]3(F)[C@@H](O)C[C@]2(C)[C@@]1(O)C(=O)CO [Betamethasone] | 72 | 95 | 88 | – | – | –
